Measurements published in US8198507B2, “Transgenic or recombinant non-human mammals and their uses in screening psychoactive medicines” (Institut National de la Sante Et de la Recherche Medicale - …, priority 2000, dated 2012).

Columns and labels:
[1] = system: STOP KO (−/−) mice; settings: STOP KO (−/−) mothers, short-term treatment (6 to 8 days before birth), 0.5 mg/kg/day in the drinking water, first day post-partum
Description: Post-partum females (second gestation) were reared individually from the beginning of their gestation. On the day of giving birth, the young mice were removed and kept in the warm for one hour. The mother was then removed from her usual cage and three newborns were each placed in a corner of this same cage, at a distance from the nest. Next, the mother was returned to her nest and the number of young mice reinstalled in the nest, over a period of 20 minutes, was evaluated.
The effect of anxiolytics (diazepam) and of neuro-leptics (chlorpromazine, haloperidol or clozapine) on the behavioral disorders of the STOP KO (−/−) mice was evaluated in the maternal behavior test as defined in example 3 (“reinstallation in the nest” test).
(§1) Haloperidol (Haldol^R, JANSSEN-CILAG), chlorpromazine (Largactil^R, RHONE-POULENC) and diazepam (Valium^R, ROCHE) were administered to the mice in the drinking water, at a dose of 0.5 mg/kg/day.
The effect of short-term administration (for 6 to 8 days from the 6th day preceding the birth) of anxiolytics (diazepam) and of neuroleptics (chlorpromazine, haloperidol or clozapine) on the behavioral disorders of the STOP KO (−/−) mice was evaluated in the “reinstallation in the nest” test.

[2] = system: STOP KO (−/−) mice; assay: Survival of the newborns of treated STOP KO (−/−) mothers; assay type: in vivo; settings: short-term treatment (6 to 8 days before birth), 0.5 mg/kg/day
Description: The survival of the newborns is analyzed among the STOP KO (−/−) mice subjected to various treatments. The newborns are considered to be survivors when they are raised until weaning.
as §1

SMILES: CN1C(=O)CN=C(c2ccccc2)c2cc(Cl)ccc21 [diazepam]
- reinstallation of the young mice in the nest [1]: slightly improved
- survival of the young mice [2]: no survival
